Data taken from US6303596A, “Use of taurolidine for treatment of leukemias” (priority 2000, dated 2001).

What was measured:
[1] = TUNEL / propidium iodide flow cytometry, PBMC all cells, culture medium; format: cell-based, human; details: human, pbmc, PBMC all cells, 6 h, mean ± SD of two experiments, read-out: % Propidium Iodide Positive
Description: (§1) FIG. 14A and FIG. 14B are terminal deoxytransferase-mediated deoxyuridine-triphosphate-biotin nick end labeling assay (TUNEL) analyses of control cells and taurolidine-treated PBMC, respectively. Cells were incubated with 100 μg/ml taurolidine for six hours and processed for TUNEL analysis as given below. Parallel samples were stained with FITC-conjugated anti-CD14 and propidium iodide (PI) as described below. Ten thousand events were recorded per sample. TUNEL signal (x-axis) is a measure of DNA fragmentation, which FSC (y-axis) is related to cell size. TUNEL-negative lymphocytes are bounded by the rectangle R1, while TUNEL-negative monocytes (CD14 positive cells) are bounded by the rectangle R2. The vertical line indicates demarcation between TUNEL-negative and TUNEL-positive cells. There were minimal numbers of PI-positive cells in the six hour samples (see Table IV).
(§2) In the second method, DNA fragmentation was detected via TUNEL assay according to the manufacturer's instructions. With this methodology, 2×10^6 cells were fixed with 2% paraformaldehyde, permeabilized with 0.1% Triton X-100/0.1% citrate, incubated at 37° C. with terminal deoxynucleotidyl transferase and FITC-dUTP, rinsed and analyzed by flow cytometry. Enhanced FITC signal indicates apoptosis-specific DNA fragmentation. Gavriali, et al, "Identification of programmed cell death in situ via specific labeling of nuclear DNA fragmentation," J Cell Biol 119:493 (1992). Parallel aliquots of unfixed cells were treated with PI and FITC-conjugated anti-CD14 and analyzed by flow cytometry, in order to identify cells with permeable cell membranes (since PI binds to DNA but is excluded from cells with intact plasma membranes) and also to determine the cell-specificity of the apoptotic signal.
(§3) A Becton-Dickinson FACSCalibur instrument was used for flow cytometric analysis of cells. Assessment of cell diameter (forward scatter; FCS) and granularity (side scatter; SSC).was carried out on unfixed cells. Discrimination between lymphocytes and monocytes was made possible by their characteristic differences in FSC and SSC, and confirmed by staining monocytes with FITC-labeled anti-CD14 antibodies and lymphocytes with a combination of FITC-conjugated anti-CD3 and PE-conjugated anti-CD19. After incubation with taurolidine (with or without concomitant LPS treatment), cells were rinsed twice in phosphate-buffered saline containing 0.1% bovine serum albumin (PBSA) and 1×10^6 cells were resuspended in 0.1 ml PBSA. After 5 μl FITC-conjugated anti-CD14 was added, cells were incubated in the dark on ice for 15 minutes and then centrifuged at 250×g. Cells were resuspended in 500 μl PBSA containing 5 μg/ml PI and subjected to flow cytometry.
(§4) Consequently, TUNEL analysis was performed on PBMC at 3, 6, or 24 hours after treatment with 25 to 100 μg/ml taurolidine. Aliquots of harvested cells were also labeled with FITC-conjugated anti-CD14 antibodies and PI, which allowed identification of monocytes (CD14-positive cells) and cells with damaged cell membranes (PI-positive cells). […] Thus, nearly 75% of the monocytes were TUNEL-positive following treatment with 100 μg/ml taurolidine for six hours. Confirmation that the TUNEL-positive cells were monocytes was obtained by staining with FITC-conjugated anti-CD14.
(§5) ^a Analysis by flow cytometry after staining cells with FITC-conjugated
(§6) anti-CD14 and PI, and processing for TUNEL. Data are mean ± SD of two

PBMC = experiment: as above; format: cell-based, human; details: PBMC
Description: as §1, §2, §3, §4, §5, §6

[2] = tested on: peripheral blood monocytes; experiment: cell size by flow cytometry (FSC), peripheral blood monocytes; format: cell-based, human; details: taurolidine 6 h
Description: FIG. 12A, FIG. 12B, FIG. 12C, and FIG. 12D are flow cytometric analyses depicting changes in cell morphology following taurolidine treatment. MM6 and PBMC were treated for three hours with taurolidine, and then treated and untreated control cells were processed for flow cytometry. Monocytes in PBMC samples were identified by staining with FITC-conjugated anti-CD14, and lymphocytes by FITC-conjugated anti-CD3 and PE-conjugated anti-CD19. FIG. 12A represents untreated MM6 cells; FIG. 12B represents MM6 cells treated with 50 μg/ml taurolidine; FIG. 12C represents untreated PBMC; and FIG. 12D represents PBMC treated with 75 μg/ml taurolidine. M=monocytes; L=lymphocytes.
as §3, with “After 5 μl FITC-conjugated anti-CD14 was added, cells were incubated in the dark on ice for 15 minutes and then centrifuged at 250×g. Cells were resuspended in 500 μl PBSA containing 5 μg/ml PI and subjected to flow cytometry.” left out

[3] = propidium iodide flow cytometry, PBMC all cells, whole blood; format: cell-based; details: human, mean ± SD of 2 experiments
Description: FIGS. 15A, 15B, and 15C depict TUNEL analysis of PBMC treated with taurolidine in whole blood, for control cells, taurolidine-treated cells, and anisomycin-treated cells, respectively . Cells were incubated with 500 μg/ml taurolidine for 4 hours, resuspended in fresh medium, incubated for two hours further and processed for TUNEL analysis. Parallel samples were stained with FITC-conjugated anti-CD14 and PI as described herein. Ten thousand events were recorded per sample. TUNEL signal (x -axis) is a measure of DNA fragmentation, while FSC (y-axis) is related to cell size. TUNEL-negative lymphocytes are bounded by rectangle R 1, while TUNEL-negative monocytes (CD 14 positive cells) are bounded by rectangle R2. […]
as §2, with “Enhanced FITC signal indicates apoptosis-specific DNA fragmentation. Gavriali, et al, "Identification of programmed cell death in situ via specific labeling of nuclear DNA fragmentation," J Cell Biol 119:493 (1992).” left out, “signal. […]” for “signal.”

Which cytotoxicity at 6 h ([1]; 25 μg/ml) does the source give for `O=S1(=O)CCN(CN2CCS(=O)(=O)NC2)CN1` [taurolidine, 4,4'-methylenebis(perhydro-1,2,4-thiadiazin 1,1-dioxide)] here?
Its cytotoxicity at 6 h is 9 ± 3.2%.

What about the cytotoxicity at 6 h ([1]; 50 μg/ml) of the same compound?
The cytotoxicity at 6 h was 12.2 ± 5.6%.

And the cytotoxicity at 6 h ([1]; 100 μg/ml)?
Its cytotoxicity at 6 h is 9 ± 3.5%.

What about the “TUNEL-positive PBMC” value (PBMC; 100 μg/ml, 6 h) of the same compound?
Its value is “substantial population of TUNEL-positive cells”.

And the “TUNEL-positive PBMC” value (PBMC; 3 h incubation)?
The value was “relatively few”.

What about the “PI-positive cells versus control” value (PBMC; taurolidine, 6 h) of the same compound?
Its value is “equivalently low levels of PI-positive cells”.

And the “decrease in FSC” value [2]?
Its value is “approximately 30%”.

And the cytotoxicity at 6 h ([3]; 200 μg/ml)?
Its cytotoxicity at 6 h is 1.6 ± 0.6%.

What about the cytotoxicity at 6 h ([3]; 500 μg/ml) of the same compound?
The cytotoxicity at 6 h was 1.4 ± 0.2%.
